The record followed here is US20100204203A1, “Chemical Compounds 637: Pyridopyrimidinediones as PDE4 Inhibitors” (priority 2007, published 2010).

Where a name gives a salt, the structure may show the parent alone.

The target of this experiment is recombinant Human Phosphodiesterase B2 (PDE4B2) (Homo sapiens, UniProt Q07343). The experiment is described as follows: Human Phosphodiesterase B2 Radiometric Assay (yttrium silicate SPA beads, [3H]cyclic AMP). It is filed as biochemical. The conditions noted are these: for IC50: recombinant human PDE4B2, radiometric SPA assay, 8 nM [3H]cyclic AMP, read-out: PDE4B2 pIC50 (converted). The method, then:
Human Phosphodiesterase B2 Radiometric Assay
The assay uses recombinant Human Phosphodiesterase B2 (PDE4B2) produced in house (PrAZL0163), stored at −20° C. This assay is based on the observation that 5′AMP, the product of the reaction catalysed by PDE4, binds preferentially to yttrium silicate SPA beads (Amersham Biosciences, UK) compared to the substrate, cAMP. Compounds at the appropriate concentration were preincubated at 30 C for 30 min with an assay buffer containing 50 mM HEPES (pH 7.5), 8.3 mM MgCl2, 1.7 mM EGTA, 0.01% (w/v) Brij° 35 and 0.1 mg/mL recombinant PDE4B2. The reaction was started by the addition of [3H]cyclic AMP to give a final concentration of 8 nM, and was stopped 20 minutes after the addition of the substrate by the addition of yttrium silicate SPA beads containing 18 mM Zn SO4. Bound [3H]cyclic AMP was measured using a Topcount NXT (Packard Bioscience, UK). pIC50 values (presented in Table 15) were determined using Xlfit3 curve fitting, using model 205.

Chain of recombinant Human Phosphodiesterase B2 (PDE4B2) (Q07343 1-564 isoform Q07343-2): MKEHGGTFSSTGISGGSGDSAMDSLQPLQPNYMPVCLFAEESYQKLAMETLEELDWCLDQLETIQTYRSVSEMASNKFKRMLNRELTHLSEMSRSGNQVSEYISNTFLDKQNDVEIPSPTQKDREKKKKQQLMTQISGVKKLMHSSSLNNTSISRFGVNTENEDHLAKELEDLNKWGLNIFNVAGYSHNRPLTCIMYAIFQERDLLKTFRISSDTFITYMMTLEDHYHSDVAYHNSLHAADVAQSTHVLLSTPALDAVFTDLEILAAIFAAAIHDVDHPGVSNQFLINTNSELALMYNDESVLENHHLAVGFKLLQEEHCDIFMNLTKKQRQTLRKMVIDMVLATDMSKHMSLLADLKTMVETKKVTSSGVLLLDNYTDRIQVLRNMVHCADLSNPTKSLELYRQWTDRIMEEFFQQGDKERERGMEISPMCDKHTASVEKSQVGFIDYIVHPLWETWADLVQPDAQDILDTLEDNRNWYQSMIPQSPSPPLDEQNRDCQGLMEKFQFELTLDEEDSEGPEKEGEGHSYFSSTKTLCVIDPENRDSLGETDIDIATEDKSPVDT

As to `O=Cc1ccc(-c2cccc(-n3c(=O)n([C@H]4CC[C@@H](NC(=O)c5cn6cc(F)ccc6n5)CC4)c(=O)c4cc(F)cnc43)c2)cc1` [Example 24, 6-fluoro-N-{cis-4-[6-fluoro-1-(4′-formylbiphenyl-3-yl)-2,4-dioxo-1,4-dihydropyrido[2,3-d]pyrimidin-3(2H)-yl]cyclohexyl}imidazo[1,2-a]pyridine-2-carboxamide.], the IC50 is 0.00794 nM.
Take `O=C(N[C@H]1CC[C@@H](n2c(=O)c3cc(F)cnc3n(-c3cccc(-c4ccc(CO)cc4)c3)c2=O)CC1)c1cn2cc(F)ccc2n1` [Example 25, 6-fluoro-N-{cis-4-[6-fluoro-1-[4′-(hydroxymethyl)biphenyl-3-yl]-2,4-dioxo-1,4-dihydropyrido[2,3-d]pyrimidin-3(2H)-yl]cyclohexyl}imidazo[1,2-a]pyridine-2-carboxamide.]: the IC50 is 0.0251 nM.
As to `O=C(N[C@H]1CC[C@@H](n2c(=O)c3cc(F)cnc3n(-c3cccc(-c4ccccc4O)c3)c2=O)CC1)c1cn2cc(F)ccc2n1` [Example 26, 6-fluoro-N-{cis-4-[6-fluoro-1-(2′-hydroxybiphenyl-3-yl)-2,4-dioxo-1,4-dihydropyrido[2,3-d]pyrimidin-3(2H)-yl]cyclohexyl}imidazo[1,2-a]pyridine-2-carboxamide.], the IC50 was 0.0501 nM.
Take `O=C(O)c1ccc(-c2cccc(-n3c(=O)n([C@H]4CC[C@@H](NC(=O)c5cn6cc(F)ccc6n5)CC4)c(=O)c4cc(F)cnc43)c2)cc1` [Example 27, 3′-[6-fiuoro-3-(cis-4-{[(6-fluoroimidazo[1,2-a]pyridin-2-yl)carbonyl]amino}cyclohexyl)-2,4-dioxo-3,4-dihydropyrido[2,3-d]pyrimidin-1(2H)-yl]biphenyl-4-carboxylic acid]: the IC50 was 0.251 nM.
Regarding `O=C(N[C@H]1CC[C@@H](n2c(=O)c3cc(F)cnc3n(-c3cccc(-c4ccc(CN5CCOCC5)cc4)c3)c2=O)CC1)c1cn2cc(F)ccc2n1` [Example 28, 6-fluoro-N-{cis-4-[6-fluoro-1-[4′-(morpholin-4-ylmethyl)biphenyl-3-yl]-2,4-dioxo-1,4-dihydropyrido[2,3-d]pyrimidin-3(2H)-yl]cyclohexyl}imidazo[1,2-a]pyridine-2-carboxamide.], the IC50 is 0.0126 nM.
For the compound `O=C(N[C@H]1CC[C@@H](n2c(=O)c3cc(F)cnc3n(-c3cccc(-c4ccc(C(F)(F)F)cc4)c3)c2=O)CC1)c1cn2cc(F)ccc2n1` [Example 29, 6-fluoro-N-{cis-4-[6-fluoro-2,4-dioxo-1-[4′-(trifluoromethyl)biphenyl-3-yl]-1,4-dihydropyrido[2,3-d]pyrimidin-3(2H)-yl]cyclohexyl}imidazo[1,2-a]pyridine-2-carboxamide.], the IC50 is 0.0794 nM.
On to `CSc1ncc(-c2cccc(-n3c(=O)n([C@H]4CC[C@@H](NC(=O)c5cn6cc(F)ccc6n5)CC4)c(=O)c4cc(F)cnc43)c2)cn1` [Example 30, 6-fluoro-N-{cis-4-[6-fluoro-1-{3-[2-(methylthio)pyrimidin-5-yl]phenyl}-2,4-dioxo-1,4-dihydropyrido[2,3-d]pyrimidin-3(2H)-yl]cyclohexyl}imidazo[1,2-a]pyridine-2-carboxamide.], for which the IC50 is 0.0158 nM.
As to `NCc1cccc(-c2cccc(-n3c(=O)n([C@H]4CC[C@@H](NC(=O)c5cn6cc(F)ccc6n5)CC4)c(=O)c4cc(F)cnc43)c2)c1` [Example 31, N-{cis-4-[1-[3′-(aminomethyl)biphenyl-3-yl]-6-fluoro-2,4-dioxo-1,4-dihydropyrido[2,3-d]pyrimidin-3(2H)-yl]cyclohexyl}-6-fluoroimidazo[1,2-a]pyridine-2-carboxamide. Hydrochloride], the IC50 was 0.501 nM.
In the case of `NCc1ccc(-c2cccc(-n3c(=O)n([C@H]4CC[C@@H](NC(=O)c5cn6cc(F)ccc6n5)CC4)c(=O)c4cc(F)cnc43)c2)cc1` [Example 32, N-{cis-4-[1-[4′-(aminomethyl)biphenyl-3-yl]-6-fluoro-2,4-dioxo-1,4-dihydropyrido[2,3-d]pyrimidin-3(2H)-yl]cyclohexyl}-6-fluoroimidazo[1,2-a]pyridine-2-carboxamide Hydrochloride], the IC50 is 0.158 nM.
`CN(C)Cc1ccccc1-c1cccc(-n2c(=O)n([C@H]3CC[C@@H](NC(=O)c4cn5cc(F)ccc5n4)CC3)c(=O)c3cc(F)cnc32)c1` [Example 33, N-{cis-4-[1-{2′-[(dimethylamino)methyl]biphenyl-3-yl}-6-fluoro-2,4-dioxo-1,4-dihydropyrido[2,3-d]pyrimidin-3(2H)-yl]cyclohexyl}-6-fluoroimidazo[1,2-c]pyridine-2-carboxamide.]: the IC50 is 0.01 nM.
With `O=C(N[C@H]1CC[C@@H](n2c(=O)c3cc(F)cnc3n(-c3cccc(Cc4ccccc4)c3)c2=O)CC1)c1cn2ccccc2n1` [Example 34, N-{cis-4-[1-(3-benzylphenyl)-6-fluoro-2,4-dioxo-1,4-dihydropyrido[2,3-c]pyrimidin-3(2H)-yl]cyclohexyl}imidazo[1,2-a]pyridine-2-carboxamide], the IC50 was 0.126 nM.
In the case of `O=C(N[C@H]1CC[C@@H](n2c(=O)c3cc(F)cnc3n(-c3ccc4c(cnn4Cc4ccccc4)c3)c2=O)CC1)c1cn2ccccc2n1` [Example 35, N-{cis-4-[1-(1-benzyl-1H-indazol-5-yl)-6-fluoro-2,4-dioxo-1,4-dihydropyrido[2,3-d]pyrimidin-3(2H)-yl]cyclohexyl}imidazo[1,2-a]pyridine-2-carboxamide], the IC50 is 6.31 nM.
In the case of `CC(C)CCCC(C)n1c(=O)n([C@H]2CC[C@@H](NC(=O)c3cn4cc(F)ccc4n3)CC2)c(=O)c2cc(F)cnc21` (stereo partly drawn) [Example 36, N-{cis-4-[1-(1,5-dimethylhexyl)-6-fluoro-2,4-dioxo-1,4-dihydropyrido[2,3-d]pyrimidin-3(2H)-yl]cyclohexyl}-6-fluoroimidazo[1,2-a]pyridine-2-carboxamide], the IC50 is 6.31 nM.
Same read-out and setting: under `O=C(N[C@H]1CC[C@@H](n2c(=O)c3cc(F)cnc3n(-c3ccc(Cc4ccccc4)cc3)c2=O)CC1)c1cn2cc(F)ccc2n1` [Example 37, N-{cis-4-[1-(4-benzylphenyl)-6-fluoro-2,4-dioxo-1,4-dihydropyrido[2,3-d]pyrimidin-3(2H)-yl]cyclohexyl}-6-fluoroimidazo[1,2-a]pyridine-2-carboxamide] stands 6.31 nM.
For the compound `O=C(N[C@H]1CC[C@@H](n2c(=O)c3cc(F)cnc3n(CCc3ccccc3)c2=O)CC1)c1cn2cc(F)ccc2n1` [Example 38, 6-fluoro-N-{cis-4-[6-fluoro-2,4-dioxo-1-(2-phenylethyl)-1,4-dihydropyrido[2,3-d]pyrimidin-3(2H)-yl]cyclohexyl}imidazo[1,2-a]pyridine-2-carboxamide], the IC50 is 3.16 nM.
For `O=C(N[C@H]1CC[C@@H](n2c(=O)c3cc(F)cnc3n(-c3ccc4c(cnn4Cc4ccccc4)c3)c2=O)CC1)c1cn2cc(F)ccc2n1` [Example 39, N-{cis-4-[1-(1-benzyl-1H-indazol-5-yl)-6-fluoro-2,4-dioxo-1,4-dihydropyrido[2,3-d]pyrimidin-3 (2H)-yl]cyclohexyl}-6-fluoroimidazo[1,2-a]pyridine-2-carboxamide], the IC50 is 10 nM.
In the case of `CN1CCC(n2c(=O)n([C@H]3CC[C@@H](NC(=O)c4cn5cc(F)ccc5n4)CC3)c(=O)c3cc(F)cnc32)CC1` [Example 40, 6-fluoro-N-{cis-4-[6-fluoro-1-(1-methylpiperidin-4-yl)-2,4-dioxo-1,4-dihydropyrido[2,3-d]pyrimidin-3(2H)-yl]cyclohexyl}imidazo[1,2-c]pyridine-2-carboxamide], the “PDE4B2 (percent at a single concentration, printed in the pIC50 column)” value (at 0.32 uM) is recorded as 50% at 0.32 uM.
Consider `O=C(NC1CN2CCC1CC2)c1cccc(-n2c(=O)n([C@H]3CC[C@@H](NC(=O)c4cn5cc(F)ccc5n4)CC3)c(=O)c3cc(F)cnc32)c1` (stereo partly drawn) [Example 42, N-{cis-4-[1-{3-[(1-azabicyclo[2.2.2]oct-3-ylamino)carbonyl]phenyl}-6-fluoro-2,4-dioxo-1,4-dihydropyrido[2,3-d]pyrimidin-3 (2H)-yl]cyclohexyl}-6-fluoroimidazo[1,2-a]pyridine-2-carboxamide], for which the IC50 is 20 nM.
In the case of `O=C(N[C@H]1CC[C@@H](n2c(=O)c3cc(F)cnc3n(-c3cccc(Sc4ccccc4)c3)c2=O)CC1)c1cn2cc(F)ccc2n1` [Example 44, 6-fluoro-N-{cis-4-[6-fluoro-2,4-dioxo-1-[3-(phenylthio)phenyl]-1,4-dihydropyrido[2,3-d]pyrimidin-3(2H)-yl]cyclohexyl}imidazo[1,2-a]pyridine-2-carboxamide], the IC50 is 0.0631 nM.
The same measure, in the same setting: under `CC(C)(C)OC(=O)N[C@H]1CC[C@@H](n2c(=O)c3cc(F)cnc3n(-c3cccc(-c4ccccc4CN4CCOCC4)c3)c2=O)CC1` [Example 45] stands 0.316 nM; under `N[C@H]1CC[C@@H](n2c(=O)c3cc(F)cnc3n(-c3cccc(-c4ccccc4CN4CCOCC4)c3)c2=O)CC1` [Example 46, 3-(cis-4-aminocyclohexyl)-6-fluoro-1-[2′-(morpholin-4-ylmethyl)biphenyl-3-yl]pyrido[2,3-d]pyrimidine-2,4(1H,3H)-dione], 2 nM; under `Cc1ccc(-c2cccc(-n3c(=O)n([C@H]4CC[C@@H](N)CC4)c(=O)c4cc(F)cnc43)c2)cc1` [Example 47, 3-(cis-4-aminocyclohexyl)-6-fluoro-1-(4′-methylbiphenyl-3-yl)pyrido[2,3-d]pyrimidine-2,4(1H,3H)-dione], 2 nM.
